{"source": "paper PMC3663535", "about": "“Substrate Selectivity of the Acid-activated Glutamate/γ-Aminobutyric acid (GABA) Antiporter GadC from Escherichia coli” (The Journal of Biological Chemistry, 2013)", "target": "T1, WT GadC (Escherichia coli, UniProt P63235)", "T1 construct": "full-length wild type; hexahistidine tag proteolytically removed; recombinant, reconstituted in E. coli polar lipid proteoliposomes", "T1 sequence (P63235 whole entry)": "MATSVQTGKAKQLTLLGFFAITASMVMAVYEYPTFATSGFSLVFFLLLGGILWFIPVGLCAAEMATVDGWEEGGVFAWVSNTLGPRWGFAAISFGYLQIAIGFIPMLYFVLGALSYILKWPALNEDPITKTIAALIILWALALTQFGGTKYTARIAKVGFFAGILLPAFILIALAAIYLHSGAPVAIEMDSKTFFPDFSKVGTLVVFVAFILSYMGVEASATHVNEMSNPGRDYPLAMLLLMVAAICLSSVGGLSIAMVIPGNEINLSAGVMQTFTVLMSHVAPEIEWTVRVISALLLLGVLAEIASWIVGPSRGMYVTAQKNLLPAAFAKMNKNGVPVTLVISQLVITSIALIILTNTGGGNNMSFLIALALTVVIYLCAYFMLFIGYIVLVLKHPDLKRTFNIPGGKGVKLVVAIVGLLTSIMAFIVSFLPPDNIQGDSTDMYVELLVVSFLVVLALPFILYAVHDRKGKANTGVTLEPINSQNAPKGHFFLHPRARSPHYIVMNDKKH", "assay": "proteoliposome Gln/GABA exchange with membrane potential", "assay_type": "biochemical", "details": "5 mM internal GABA, efflux followed through influx of 50 μM external [3H]Gln; pH 5.5"}
{"compound": "NCCCC(=O)O", "note": "[GABA]", "values": [{"measurement": "proteoliposome Gln/GABA exchange with membrane potential", "value": "confirm our prediction that GABA^+ is the transport substrate for GadC"}]}
